Data as given in patent US4293483A, “Derivatives of A-30912A nucleus” (priority 1980, dated 1981).
Values after ≈ are worked out from the molar mass of the structure shown. Values joined by “and” are separate entries in the source; they are usually repeats but may differ in a detail not shown here. Equal values may be shown once. Read-outs that look alike come from different tables or passages of the source. Numbered stars: 1 amine (or outer) side, 2 acyl side, 3 side chain; on linkers, the order of the positions; unused ones are H or OH. Bridge positions count the residues as written; N and C are the ends. Square brackets hold non-standard residues; d marks the D form. Peptide text beside a SMILES is read from it. * marks the point of attachment. Orn(4R-OH,5R-OH) = O=C([C@H](C[C@@H](O)[C@@H](O)N[*:3])N[*:1])[*:2]; hTyr(3S-OH,4S-OH) = N[C@H](C(=O)O)[C@H](O)[C@@H](O)c1ccc(O)cc1; Pro(3S-OH,4S-Me) = C[C@H]1CN[C@H](C(=O)O)[C@H]1O; Hyp = O=C(O)[C@@H]1C[C@@H](O)CN1; Lauroyl = CCCCCCCCCCCC(=O)*; 4Abz = Nc1ccc(C(=O)O)cc1; Aun = NCCCCCCCCCCC(=O)O; Ava = NCCCCC(=O)O

Assays:
fungi = test: Antifungal activity of the cyclic nucleus; format: cell-based; conditions: in words; nucleus lacking the linoleoyl side chain
Candida albicans A-26 [1] = test: Agar plate disc diffusion test, MIC per disc; format: cell-based; conditions: 0.01M sodium borate, pH 7.5, 24 hours at 30° C.
Method: (§3) *Compounds were suspended in 0.01M sodium borate solution, pH 7.5.
(§4) compounds were tested at 20 μg/disc at top level and at twofold
(§5) dilutions until end points were reached.

[2] = tested on: Trichophyton mentagrophytes; test: Agar plate disc diffusion test, zone of inhibition; format: cell-based
Method: (§6) ^(a) Compounds were tested as suspension in methanol.
(§7) were tested at a concentration of 1 mg/ml by a dipping 7mm disc into the
(§8) suspension and placing it on the agar surface. Incubation: 24-48 hours at

[3] = tested on: Trychophyton mentagrophytes #6; test: Agar plate disc diffusion test, MIC per disc; format: cell-based; conditions: 0.01M sodium borate, pH 7.5, 24 hours at 30° C.
Method: as §3, §4, §5

[4] = mouse, in vivo, 416 mg/kg, 240 min
Method: (§9) In this test, mice are gavaged with a dose of 416 mg/kg of the test compound suspended in 33% PEG 400-water. At time intervals, blood samples are taken from the orbital sinus and are assayed for antibiotic activity as follows: A 7 mm. disc containing 20 μl of whole blood is placed on agar seeded with Aspergillus montevidensis A35137. After 40 hours incubation at 30° C. zones of inhibition from the blood samples are compared to a standard obtained from the test compound, and the amount of compound in the blood sample is calculated.

Candida albicans A-26 [5] = test: Therapeutic activity against Candida albicans A-26 infection in mice; format: in vivo; conditions: A26, sc
Method: The results of in vivo tests to evaluate the effectiveness of the compound of Examples 61-81, 86 and 88 against an infection caused by Candida albicans A-26 in mice are given in Table 7, where activity is measured by the ED50 value (the dose in mg/kg. required to cure 50% of the test animals). Where an ED50 value was not obtained, activity is indicated by the lowest dose at which a significant anti-fungal effect is observed. In this test, groups of male albino mice (specific pathogen free), weighing 18 to 20 grams, are infected intravenously with Candida albicans A-26. The animals are X-irradiated 24 hours prior to infection at about 50 roentgens per minute for 8 minutes (400 total dose) to reduce immune responses to the infecting organism. At 0, 4, and 24 hours post infection each group of mice is given graded doses subcutaneously of the test compound as a suspension in 33% polyethylene glycol-water. The day of death for each animal is recorded.
*Dosage Schedule: 40, 20, 15, and 10 mg/kg. Dosages given 0, 4, and 24
hours post injection as suspension of test compound in 30% PEGH2 O.
Number of mice receiving test compounds at each dosage level: 6 mice per
group. Number of mice in control (untreated) group: 10 mice per group.
**As measured by increase in survival time of treated animals versus
control, calculated by method of Reed V. Mueuch, American J. Hygiene, 493

Neurospora Crassa 846 = test: Agar plate disc diffusion test, zone of inhibition; format: cell-based; conditions: 7 mm disc; for zone of inhibition at 1000 µg/mL: Neurospora crassa
Method: as §6, §7, §8

Candida albicans SBH 16 = test: Agar dilution assay; format: cell-based
Method: (§1) Tables 4 and 5 give the results of the testing in vitro of the compounds of Examples 61-81 by agar-plate disc-diffusion methods. In Table 4 activity is measured by the size (diameter in mm.) of the observed zone of inhibition of the microorganism produced by the test compound. In Table 5, activity is measured by the minimal inhibitory concentration (MIC) of the substance (μg/disc) required to inhibit growth of the test organism. Table 6 gives the results of the testing in vitro of the N-(n-dodecanoyl)-p-aminobenzoyl derivative of A30912A nucleus (Formula III, R^1 is N-(dodecanoyl)-p-aminobenzoyl) against five strains of Candida albicans by the agar dilution method. In Table 6 activity is measured by the minimal inhibitory concentration (MIC) of the substance (μg/ml) required to inhibit the test organism.
(§2) In vitro activity of the N-(n-dodecanoyl)-p-aminobenzoyl (Example 64) and the N-(n-dodecanoyl)-5-amino-n-pentanoyl (Example 62) derivatives of A-30912A nucleus against 5 strains of Candida albicans by the agar dilution assay.

Candida albicans SBH 28 = test: Agar dilution assay; format: cell-based
Method: as §1, §2

Candida albicans A26 = test: Agar dilution assay; format: cell-based
Method: as §1, §2

Candida albicans SBH 29 = test: Agar dilution assay; format: cell-based
Method: as §1, §2

Candida albicans SBH 31 = test: Agar dilution assay; format: cell-based
Method: as §1, §2

[6] = tested on: Saccharomyces pastorianus X-52; test: Agar plate disc diffusion test, zone of inhibition; format: cell-based; conditions: 1 mg/ml suspension in methanol, 7 mm disc, 24-48 hours at 25-37° C.; for zone of inhibition at 1000 µg/mL: Saccharomyces pastorianus, X52, 48 h
Method: as §6, §7, §8

Candida albicans A-26 [7] = test: Agar plate disc diffusion test, zone of inhibition; format: cell-based; conditions: 1 mg/ml suspension in methanol, 7 mm disc, 24-48 hours at 25-37° C., no regrowth mark
Method: as §6, §7, §8

in vivo = conditions: mouse, po, 416 mg/kg
Method: as §9

[8] = Blood levels after oral administration in mice; conditions: mouse, in vivo, po, 416 mg/kg
Method: as §9

[9] = Toxicity in dog on intravenous administration; format: in vivo; conditions: 100 mg/kg per day for five days
[10] = 1 mg/ml, 7 mm disc, * measurable zone of inhibition with regrowth of organism around disc, read-out: Size of Zone of Inhibition (*)
[11] = subcutaneous at 0, 4 and 24 hours post infection, dose to cure 50% of test animals, by increase in survival time, read-out: ED50
[12] = subcutaneous at 0, 4 and 24 hours post infection, lowest dose with significant anti-fungal effect, read-out: Lowest Active Dose
[13] = CRASSA846, Neurospora Crassa 846, 1 mg/ml, * measurable zone of inhibition with regrowth of organism around disc, read-out: Size of Zone of Inhibition (*)
[14] = Saccharomyces pastorianus X-52, read-out: Size of Zone of Inhibition
[15] = 1 mg/ml, 7 mm disc, * measurable zone of inhibition with regrowth of organism around disc

Compound	MIC (Candida albicans A-26 [1])	zone of inhibition at 1000 µg/mL [2, 10] [mm]	MIC [3] [μg/disc]	Blood Levels [4] [ng/mL]	ED50 (Candida albicans A-26 [5]; [11]) [mg/kg]	minimal effective dose (Candida albicans A-26 [5]; [12]) [mg/kg]	zone of inhibition at 1000 µg/mL (Neurospora Crassa 846; [13]) [mm]	zone of inhibition at 1000 µg/mL [6, 14] [mm]	Size of Zone of Inhibition (Candida albicans A-26 [7])	Size of Zone of Inhibition (*) [2, 15] [mm]	Size of Zone of Inhibition ([6]; Saccharomyces pastorianus X-52) [mm]	also measured
C[C@@H](O)[C@@H]1NC(=O)[C@H]([C@H](O)[C@@H](O)c2ccc(O)cc2)NC(=O)[C@@H]2C[C@@H](O)CN2C(=O)[C@H]([C@@H](C)O)NC(=O)[C@@H](N)C[C@@H](O)[C@@H](O)NC(=O)[C@@H]2[C@@H](O)[C@@H](C)CN2C1=O [A-30912A nucleus] (H-[Orn(4R-OH,5R-OH)]T[Hyp][hTyr(3S-OH,4S-OH)]T[Pro(3S-OH,4S-Me)]; lactam 1-C)	–	–	–	–	–	–	–	–	–	–	–	antifungal activity (fungi): substantially devoid of antifungal activity
CCCCCCCCCCCC(=O)NCCCCC(=O)N[C@H]1C[C@@H](O)[C@@H](O)NC(=O)[C@@H]2[C@@H](O)[C@@H](C)CN2C(=O)[C@H]([C@@H](C)O)NC(=O)[C@H]([C@H](O)[C@@H](O)c2ccc(O)cc2)NC(=O)[C@@H]2C[C@@H](O)CN2C(=O)[C@H]([C@@H](C)O)NC1=O [Example 62, N-(n-dodecanoyl)-5-amino-n-pentanoyl derivative of A-30912A nucleus] ({Lauroyl-Ava}-[Orn(4R-OH,5R-OH)]T[Hyp][hTyr(3S-OH,4S-OH)]T[Pro(3S-OH,4S-Me)]; lactam 1-C)	1.25 μg/disc	60	0.078	0	22	20	27	15	25 mm	–	–	MIC (Candida albicans SBH 16; SBH16, agar dilution, strain SBH 16, read-out: MIC): 2.5 µg/mL (≈ 2.32 µM); MIC (Candida albicans SBH 28; SBH28, agar dilution, strain SBH 28, read-out: MIC): 2.5 µg/mL (≈ 2.32 µM); MIC (Candida albicans A26; agar dilution, strain A26, read-out: MIC): 1.25 µg/mL (≈ 1.16 µM); MIC (Candida albicans SBH 29; SBH29, agar dilution, strain SBH 29, read-out: MIC): 2.5 µg/mL (≈ 2.32 µM); MIC (Candida albicans SBH 31; SBH31, agar dilution, strain SBH 31, read-out: MIC): 2.5 µg/mL (≈ 2.32 µM)
CCCCCCCCCCCC(=O)NCCCCCCCCCCC(=O)N[C@H]1C[C@@H](O)[C@@H](O)NC(=O)[C@@H]2[C@@H](O)[C@@H](C)CN2C(=O)[C@H]([C@@H](C)O)NC(=O)[C@H]([C@H](O)[C@@H](O)c2ccc(O)cc2)NC(=O)[C@@H]2C[C@@H](O)CN2C(=O)[C@H]([C@@H](C)O)NC1=O [Example 63] ({Lauroyl-Aun}-[Orn(4R-OH,5R-OH)]T[Hyp][hTyr(3S-OH,4S-OH)]T[Pro(3S-OH,4S-Me)]; lactam 1-C)	2.5 μg/disc and 1.25 μg/disc	55	0.156	0	> 40	> 40	28	15	24 mm and 25 mm	63	18	zone of inhibition at 1000 µg/mL ([2]; 48 h, 1 mg/ml suspension in methanol, 7 mm disc, 24-48 hours at 25-37° C., no regrowth mark, read-out: Size of Zone of Inhibition): 56 mm; Size of Zone of Inhibition (Neurospora Crassa 846; Neurospora Crassa 846, 1 mg/ml suspension in methanol, 24-48 hours at 25-37° C., no regrowth mark): 28 mm; zone of inhibition at 1000 µg/mL (Neurospora Crassa 846; CRASSA846, 48 h, Neurospora Crassa 846, 1 mg/ml suspension in methanol, 24-48 hours at 25-37° C., no regrowth mark, read-out: Size of Zone of Inhibition): 35 mm; concentration at 4 h (in vivo): 400 ng/mL
CCCCCCCCCCCC(=O)Nc1ccc(C(=O)N[C@H]2C[C@@H](O)[C@@H](O)NC(=O)[C@@H]3[C@@H](O)[C@@H](C)CN3C(=O)[C@H]([C@@H](C)O)NC(=O)[C@H]([C@H](O)[C@@H](O)c3ccc(O)cc3)NC(=O)[C@@H]3C[C@@H](O)CN3C(=O)[C@H]([C@@H](C)O)NC2=O)cc1 [Example 64, N-(n-dodecanoyl)-p-aminobenzoyl derivative of A-30912A nucleus] ({Lauroyl-4Abz}-[Orn(4R-OH,5R-OH)]T[Hyp][hTyr(3S-OH,4S-OH)]T[Pro(3S-OH,4S-Me)]; lactam 1-C)	0.625 μg/disc and 1.25 μg/disc	–	–	–	–	–	–	–	23 mm and 19 mm	56	17	zone of inhibition at 1000 µg/mL ([2]; read-out: Size of Zone of Inhibition (*), Trichophyton mentagrophytes, 1 mg/ml, 7 mm disc, * measurable zone of inhibition with regrowth of organism around disc): 55 mm; concentration at 4 h [8]: 830 ng/mL; SGPT levels [9]: increased SGPT levels were observed; outward signs of toxicity [9]: no outward signs of toxicity; ED50 (Candida albicans A-26 [5]): 15 mg/kg; minimal effective dose (Candida albicans A-26 [5]; read-out: Lowest Active Dose, subcutaneous at 0, 4 and 24 hours post infection, lowest dose with significant anti-fungal effect): 10 mg/kg; Size of Zone of Inhibition (*) (Neurospora Crassa 846; Neurospora Crassa 846, 1 mg/ml, * measurable zone of inhibition with regrowth of organism around disc): 35 mm; zone of inhibition at 1000 µg/mL (Neurospora Crassa 846; CRASSA846, read-out: Size of Zone of Inhibition (*), Neurospora Crassa 846, 1 mg/ml, * measurable zone of inhibition with regrowth of organism around disc): 33 mm; MIC (Candida albicans SBH 16; SBH16): 0.625 µg/mL (≈ 0.569 µM); MIC (Candida albicans SBH 28; SBH28): 0.625 µg/mL (≈ 0.569 µM); MIC (Candida albicans A26; A26): 0.312 µg/mL (≈ 0.284 µM); MIC (Candida albicans SBH 29; SBH29): 0.625 µg/mL (≈ 0.569 µM); MIC (Candida albicans SBH 31; SBH31): 0.625 µg/mL (≈ 0.569 µM); zone of inhibition at 1000 µg/mL ([6]; read-out: Size of Zone of Inhibition, Saccharomyces pastorianus X-52): 21 mm
